Key:
[1] = system: Carmine spider mite (Tetranychus cinnabarinus); experiment: Acaricidal activity, Airbrush spraying tower, mortality
Method: (§1) Technical samples were dissolved in acetone/methanol (1:1) and diluted to required concentration with water containing 0.1% of tween 80.
(§2) Armyworm (Leucania separata), diamondback moth (Plutella xylostella) culex mosquitoes (Culex pippens pallens), Myzus persicae (Myzus persicae and Carmine spider mite (Tetranychus cinnabarinus) were treated with Airbrush spraying tower, and culex mosquito was treated with dipping culture method. The pressure of Airbrush spraying tower was 10 psi (about 0.7 kg/cm2) and the amount of spraying was 0.5 ml. Mortality investigation of test insects was carried out 2 to 3 days after the treatment.

[2] = system: wheat powdery mildew (Blumeria graminis); experiment: Fungicidal protective activity against wheat powdery mildew on potted plants; format: in vivo
[3] = system: cucumber downy mildew (Pseudoperonospora cubenis); experiment: Fungicidal protective activity against cucumber downy mildew on potted plants; format: in vivo; details: 400 mg/L
[4] = system: wheat powdery mildew (Blumeria graminis); experiment: Therapy activity against wheat powdery mildew on potted plants; format: in vivo
[5] = system: Myzus persicae; experiment: Insecticidal activity, Airbrush spraying tower, mortality; details: 600 mg/L
Method: as §1, §2

[6] = 0.19 mg/L, wheat powdery mildew
[7] = 0.39 mg/L, wheat powdery mildew
[8] = 0.78 mg/L, wheat powdery mildew
[9] = 1.56 mg/L, wheat powdery mildew
[10] = 3.13 mg/L, wheat powdery mildew
[11] = 6.25 mg/L, wheat powdery mildew
[12] = 12.5 mg/L, wheat powdery mildew

| Structure (SMILES) | control against wheat powdery mildew ([2]; 200 mg/L) | control against wheat powdery mildew ([2]; 400 mg/L) | Protective activity % one day [2, 6] | Protective activity % one day [2, 7] | Protective activity % one day [2, 8] | Protective activity % one day [2, 9] | Protective activity % one day [2, 10] | Protective activity % one day [2, 11] | control against wheat powdery mildew ([2]; 12.5 mg/L) | Protective activity % one day [2, 12] | Protective activity % one day ([2]; 25 mg/L, wheat powdery mildew) | control against cucumber downy mildew [3] | also measured |
| --- | --- | --- | --- | --- | --- | --- | --- | --- | --- | --- | --- | --- | --- |
| CC(C)(C)c1ccc(CSc2cnn(C(C)(C)C)c(=O)c2Cl)cc1 [Pyridaben, reference compound] |  |  |  |  |  |  |  |  |  |  |  |  | control of Carmine spider mite ([1]; 10 mg/L): 95% |
| COC(=O)N(OC)c1ccccc1COc1ccc(C(F)(F)F)cc1Cl [compound 10] | more than 95% | 100% |  |  |  |  |  |  |  |  |  |  |  |
| CNC(=O)C(=NOC)c1ccccc1COc1ccc(C(F)(F)F)cc1Cl [compound 7] | 100% | 100% | 50% | 85% | 90% | 100% | 100% | 100% | 100% | 100% | 100% | 100% |  |
| COC=C(C(=O)OC)c1ccccc1COc1ccc(C(F)(F)F)cc1Cl [compound 1] | 100% | 100% | 30% | 55% | 90% | 100% | 100% | 100% | 100% | 100% | 100% | 100% | Therapy activity % 3 days ([4]; 1.56 mg/L): 50%; Therapy activity % 3 days ([4]; 3.125 mg/L): 80%; Therapy activity % 3 days ([4]; 6.25 mg/L): 100%; Therapy activity % 3 days ([4]; 12.5 mg/L): 100%; control of Myzus persicae [5]: 100%; control of Carmine spider mite ([1]; 10 mg/L): 95%; control of Carmine spider mite ([1]; 50 mg/L): 100%; control of Carmine spider mite ([1]; 150 mg/L): 100%; control of Carmine spider mite ([1]; 600 mg/L): 100% |
| CO/N=C(/C(=O)OC)c1ccccc1COc1ccccc1C [kresoxin-methyl, reference compound] |  |  |  |  |  |  |  |  |  |  |  |  | inhibition at 1.56 µg/mL ([4]; Blumeria graminis, 72 h, 1.56 mg/L, read-out: Therapy activity % 3 days): 10%; inhibition at 3.125 µg/mL ([4]; Blumeria graminis, 72 h, 3.125 mg/L, read-out: Therapy activity % 3 days): 15%; inhibition at 6.25 µg/mL ([4]; Blumeria graminis, 72 h, 6.25 mg/L, read-out: Therapy activity % 3 days): 20%; inhibition at 12.5 µg/mL ([4]; Blumeria graminis, 72 h, 12.5 mg/L, read-out: Therapy activity % 3 days): 100%; inhibition at 0.19 µg/mL ([2]; Blumeria graminis, 24 h, 0.19 mg/L, wheat powdery mildew, read-out: Protective activity % one day): 0%; inhibition at 0.39 µg/mL ([2]; Blumeria graminis, 24 h, 0.39 mg/L, wheat powdery mildew, read-out: Protective activity % one day): 0%; inhibition at 0.78 µg/mL ([2]; Blumeria graminis, 24 h, 0.78 mg/L, wheat powdery mildew, read-out: Protective activity % one day): 15%; inhibition at 1.56 µg/mL ([2]; Blumeria graminis, 24 h, 1.56 mg/L, wheat powdery mildew, read-out: Protective activity % one day): 40%; inhibition at 3.13 µg/mL ([2]; Blumeria graminis, 24 h, 3.13 mg/L, wheat powdery mildew, read-out: Protective activity % one day): 70%; inhibition at 6.25 µg/mL ([2]; Blumeria graminis, 24 h, 6.25 mg/L, wheat powdery mildew, read-out: Protective activity % one day): 98%; inhibition at 12.5 µg/mL ([2]; Blumeria graminis, 24 h, 12.5 mg/L, wheat powdery mildew, read-out: Protective activity % one day): 100%; inhibition at 25 µg/mL ([2]; Blumeria graminis, 24 h, 25 mg/L, wheat powdery mildew, read-out: Protective activity % one day): 100% |
| COC=C(C(=O)OC)c1ccccc1Oc1cc(Oc2ccc(C(F)(F)F)cc2Cl)ncn1 [compound 16] |  | 100% |  |  |  |  |  |  |  |  |  |  |  |
| CON=C(C(=O)OC)c1ccccc1COc1ccc(C(F)(F)F)cc1Cl [compound 4] | 100% | 100% | 70% | 90% | 98% | 100% | 100% | 100% | 100% | 100% | 100% | 100% | control of Carmine spider mite ([1]; 600 mg/L): 100% |
